Reference: patent publication US8829007B2 (priority 2009, dated 2014)
Like-named read-outs stand apart in the source and are kept apart here.

What was measured:
[1] = test system: influenza A virus (A/PR/8/34); assay: microbe, parasite or virus in culture; assay type: cell-based; settings: MDCK cells infected with A/PR/8/34, survival of infected cells, class symbols, read-out: IC50 (mean all)
[2] = test system: A/PR/8/34 influenza virus; assay: microbe, parasite or virus in culture; assay type: cell-based; settings: MDCK cells infected with A/PR/8/34, replication of influenza virus (viral RNA, bDNA), class symbols, read-out: EC50 (mean all)

SMILES	IC50 ([1]; Influenza A virus, PR/8, MDCK)	EC50 ([2]; Influenza A virus, PR/8, MDCK)	IC50 [1]	EC50 [2]
O=C1NCCCC[C@@H]1Nc1nc(-c2c[nH]c3ncc(C(F)(F)F)cc23)ncc1F [Compound 502, (S)-3-(5-fluoro-2-(5-(trifluoromethyl)-1H-pyrrolo[2,3-b]pyridin-3-yl)pyrimidin-4-ylamino)azepan-2-one]	< 5 µM	< 5 µM		
CC1(C)CCC[C@H](Nc2nc(-c3c[nH]c4ncc(Cl)cc34)ncc2F)C(=O)N1 [Compound 504]	5 to 20 µM	< 5 µM		
CNC(=O)N1CCCC(Nc2nc(-c3c[nH]c4ncc(Cl)cc34)ncc2F)CC1 (stereo not shown) [Compound 506, 4-(2-(5-chloro-1H-pyrrolo[2,3-b]pyridin-3-yl)-5-fluoropyrimidin-4-ylamino)-N-methylazepane-1-carboxamide]	< 5 µM	< 5 µM		
NC(=O)N1CCC[C@H](Nc2nc(-c3c[nH]c4ncc(Cl)cc34)ncc2F)C1 [Compound 507]	< 5 µM	< 5 µM		
NC(=O)N1CCCC(Nc2nc(-c3c[nH]c4ncc(Cl)cc34)ncc2F)CC1 (stereo not shown) [Compound 509, 4-(2-(5-chloro-1H-pyrrolo[2,3-b]pyridin-3-yl)-5-fluoropyrimidin-4-ylamino)azepane-1-carboxamide]	< 5 µM	< 5 µM		
NC(=O)N1CC(Nc2nc(-c3c[nH]c4ncc(Cl)cc34)ncc2F)C1 [Compound 512]	> 20 µM	5 to 10 µM		
O=C1NCCOCC1Nc1nc(-c2c[nH]c3ncc(Cl)cc23)ncc1F (stereo not shown) [Compound 513, 6-(2-(5-chloro-1H-pyrrolo[2,3-b]pyridin-3-yl)-5-fluoropyrimidin-4-ylamino)-1,4-oxazepan-5-one]	5 to 20 µM	< 5 µM		
OC1CCCC(Nc2nc(-c3c[nH]c4ncc(Cl)cc34)ncc2F)C1 [Compound 524, (3S)-3-((2-(5-chloro-1H-pyrrolo[2,3-b]pyridin-3-yl)-5-fluoropyrimidin-4-ylamino)cyclohexanol]	< 5 µM	< 5 µM		
OCC(O)CN1CCCC(Nc2nc(-c3c[nH]c4ncc(Cl)cc34)ncc2F)C1 [Compound 525, 3-((S)-3-((2-(5-chloro-1H-pyrrolo[2,3-b]pyridin-3-yl)-5-fluoropyrimidin-4-ylamino)piperidin-1-yl)propane-1,2-diol]	< 5 µM	< 5 µM		
COC(=O)N1CCOCC1CNc1nc(-c2c[nH]c3ncc(Cl)cc23)ncc1F (stereo not shown) [Compound 526, Methyl 3-((2-(5-chloro-1H-pyrrolo[2,3-b]pyridin-3-yl)-5-fluoropyrimidin-4-ylamino)methyl)morpholine-4-carboxylate]	5 to 20 µM	< 5 µM		
CCOC(=O)N1CCOCC1CNc1nc(-c2c[nH]c3ncc(Cl)cc23)ncc1F (stereo not shown) [Compound 527, Ethyl 3-((2-(5-chloro-1H-pyrrolo[2,3-b]pyridin-3-yl)-5-fluoropyrimidin-4-ylamino)methyl)morpholine-4-carboxylate]	> 20 µM	> 10 µM		
C=CCOC(=O)N1CCOCC1CNc1nc(-c2c[nH]c3ncc(Cl)cc23)ncc1F (stereo not shown) [Compound 528, Allyl 3-((2-(5-chloro-1H-pyrrolo[2,3-b]pyridin-3-yl)-5-fluoropyrimidin-4-ylamino)methyl)morpholine-4-carboxylate]	5 to 20 µM	> 10 µM		
CC(C)C(=O)N1CCOCC1CNc1nc(-c2c[nH]c3ncc(Cl)cc23)ncc1F (stereo not shown) [Compound 529, 1-(3-((2-(5-chloro-1H-pyrrolo[2,3-b]pyridin-3-yl)-5-fluoropyrimidin-4-ylamino)methyl)morpholino)-2-methylpropan-1-one]	5 to 20 µM	> 10 µM		
CC(C)(C)C(=O)N1CCOCC1CNc1nc(-c2c[nH]c3ncc(Cl)cc23)ncc1F (stereo not shown) [Compound 530, 1-(3-((2-(5-chloro-1H-pyrrolo[2,3-b]pyridin-3-yl)-5-fluoropyrimidin-4-ylamino)methyl)morpholino)-2,2-dimethylpropan-1-one]	> 20 µM	5 to 10 µM		
O=C(C1CCC1)N1CCOCC1CNc1nc(-c2c[nH]c3ncc(Cl)cc23)ncc1F (stereo not shown) [Compound 531, (3-((2-(5-chloro-1H-pyrrolo[2,3-b]pyridin-3-yl)-5-fluoropyrimidin-4-ylamino)methyl)morpholino)(cyclobutyl)methanone]	5 to 20 µM	< 5 µM		
CS(=O)(=O)N1CCOCC1CNc1nc(-c2c[nH]c3ncc(Cl)cc23)ncc1F (stereo not shown) [Compound 532, 2-(5-chloro-1H-pyrrolo[2,3-b]pyridin-3-yl)-5-fluoro-N-((4-(methylsulfonyl)morpholin-3-yl)methyl)pyrimidin-4-amine]	5 to 20 µM	< 5 µM		
O=S(=O)(C1CC1)N1CCOCC1CNc1nc(-c2c[nH]c3ncc(Cl)cc23)ncc1F (stereo not shown) [Compound 533, 2-(5-chloro-1H-pyrrolo[2,3-b]pyridin-3-yl)-N-((4-(cyclopropylsulfonyl)morpholin-3-yl)methyl)-5-fluoropyrimidin-4-amine]	5 to 20 µM	< 5 µM		
NC(=O)N1CCOCC1CNc1nc(-c2c[nH]c3ncc(Cl)cc23)ncc1F (stereo not shown) [Compound 534, 3-((2-(5-chloro-1H-pyrrolo[2,3-b]pyridin-3-yl)-5-fluoropyrimidin-4-ylamino)methyl)morpholine-4-carboxamide]	5 to 20 µM	< 5 µM		

SMILES	IC50 ([1]; Influenza A virus, PR/8, MDCK)	EC50 ([2]; Influenza A virus, PR/8, MDCK)	IC50 [1]	EC50 [2]
CCNC(=O)N1CCOCC1CNc1nc(-c2c[nH]c3ncc(Cl)cc23)ncc1F (stereo not shown) [Compound 535, 3-((2-(5-chloro-1H-pyrrolo[2,3-b]pyridin-3-yl)-5-fluoropyrimidin-4-ylamino)methyl)-N-ethylmorpholine-4-carboxamide]	5 to 20 µM	> 10 µM		
CC(C)NC(=O)N1CCOCC1CNc1nc(-c2c[nH]c3ncc(Cl)cc23)ncc1F (stereo not shown) [Compound 536, 3-((2-(5-chloro-1H-pyrrolo[2,3-b]pyridin-3-yl)-5-fluoropyrimidin-4-ylamino)methyl)-N-isopropylmorpholine-4-carboxamide]	5 to 20 µM	> 10 µM		
COCC(O)CN1CCCC(Nc2nc(-c3c[nH]c4ncc(Cl)cc34)ncc2F)C1 [Compound 537, 1-((S)-3-((2-(5-chloro-1H-pyrrolo[2,3-b]pyridin-3-yl)-5-fluoropyrimidin-4-ylamino)piperidin-1-yl)-3-methoxypropan-2-ol]	< 5 µM	< 5 µM		
CC[C@H](O)CN1CCCC(Nc2nc(-c3c[nH]c4ncc(Cl)cc34)ncc2F)C1 (stereo partly shown) [Compound 538]	< 5 µM	< 5 µM		
NC1CCCC(Nc2nc(-c3c[nH]c4ncc(Cl)cc34)ncc2F)C1 (stereo not drawn) [Compound 540, N-[2-(5-chloro-1H-pyrrolo[5,4-b]pyridin-3-yl)-5-fluoro-pyrimidin-4-yl]cyclohexane-cis-1,3-diamine]	< 5 µM	< 5 µM		
N[C@H]1CCC[C@@H](Nc2nc(-c3c[nH]c4ncc(Cl)cc34)ncc2F)C1 [Compound 542, (1R,3S)—N1-[2-(5-chloro-1H-pyrrolo[2,3-b]pyridin-3-yl)-5-fluoro-pyrimidin-4-yl]cyclohexane-1,3-diamine]	5 to 20 µM	5 to 10 µM		
O=C(O)[C@H]1CCCC[C@@H]1Nc1nc(-c2c[nH]c3ncc(Cl)cc23)ncc1F [Compound 553, (1S,2S)-2-[[2-(5-chloro-1H-pyrrolo[5,4-b]pyridin-3-yl)-5-fluoro-pyrimidin-4-yl]amino]cyclohexane-1-carboxylic acid]	< 5 µM	< 5 µM		
CCOC(=O)[C@@H]1CCCC[C@H]1Nc1nc(-c2c[nH]c3ncc(Cl)cc23)ncc1F [Compound 560, (1R,2R)-ethyl 2-(2-(5-chloro-1H-pyrrolo[2,3-b]pyridin-3-yl)-5-fluoropyrimidin-4-ylamino)cyclohexanecarboxylate]	> 10 µM	> 10 µM		
CCOC(=O)[C@H]1CCCC[C@@H]1Nc1nc(-c2c[nH]c3ncc(Cl)cc23)ncc1F [Compound 561, (1S,2S)-ethyl 2-(2-(5-chloro-1H-pyrrolo[2,3-b]pyridin-3-yl)-5-fluoropyrimidin-4-ylamino)cyclohexanecarboxylate]	5 to 20 µM	< 5 µM		
CC1(O)CCCCC1Nc1nc(-c2c[nH]c3ncc(Cl)cc23)ncc1F (stereo not shown) [Compound 562, 2-(2-(5-chloro-1H-pyrrolo[2,3-b]pyridin-3-yl)-5-fluoropyrimidin-4-ylamino)-1-methylcyclohexanol]	> 10 µM	< 5 µM		
O=C(O)[C@H]1CC[C@@H](Nc2nc(-c3c[nH]c4ncc(Cl)cc34)ncc2F)C1 [Compound 565]	5 to 20 µM	< 5 µM		
O=C(O)[C@@H]1CC[C@H](Nc2nc(-c3c[nH]c4ncc(Cl)cc34)ncc2F)C1 [Compound 566]	< 5 µM	< 5 µM		
NC(=O)CN1CCC[C@H](Nc2nc(-c3c[nH]c4ncc(Cl)cc34)ncc2F)C1 [Compound 567]	< 5 µM	< 5 µM		
CC(C)OC(=O)[C@@H]1CCCC[C@H]1Nc1nc(-c2c[nH]c3ncc(Cl)cc23)ncc1F [Compound 568, (1R,2R)-isopropyl 2-(2-(5-chloro-1H-pyrrolo[2,3-b]pyridin-3-yl)-5-fluoropyrimidin-4-ylamino)cyclohexanecarboxylate]	> 10 µM	> 10 µM		
CC(C)OC(=O)[C@H]1CCCC[C@@H]1Nc1nc(-c2c[nH]c3ncc(Cl)cc23)ncc1F [Compound 569, (1S,2S)-isopropyl 2-(2-(5-chloro-1H-pyrrolo[2,3-b]pyridin-3-yl)-5-fluoropyrimidin-4-ylamino)cyclohexanecarboxylate]	> 10 µM	> 10 µM		
COC(=O)N[C@@H]1CCC[C@H](Nc2nc(-c3c[nH]c4ncc(Cl)cc34)ncc2F)C1 [Compound 570, methyl N-[(1R,3S)-3-[[2-(5-chloro-1H-pyrrolo[2,3-b]pyridin-3-yl)-5-fluoro-pyrimidin-4-yl]amino]cyclohexyl]carbamate]	< 5 µM	< 5 µM		
CC1(O)CCC[C@H](Nc2nc(-c3c[nH]c4ncc(Cl)cc34)ncc2F)C1 (stereo partly shown) [Compound 571]			< 5 µM	< 5 µM
